Test results reported in patent US6843784B2, “Triclosan and silver compound containing medical devices” (priority 1999, dated 2005).
“And” between values parts separate entries of the source, which are not always exact repeats. Equal entries are not always repeated. Where two headings read alike, the source gives them in different places.

Test system: S. aureus
Type: cell-based
Description: Drug solutions containing 10% ammonia were prepared in ethanol, and 0.1 ml of each solution was added to 0.9 ml of bacterial culture (50% trypticase soy broth +50% Bovine Calf Serum containing 10^8 cfu S. aureus/ml). After 10 minutes, a 0.1 ml aliquot was removed and added to 0.9 ml drug inactivating media (LTSB). […] The colony counts were then determined.

Oc1cc(Cl)ccc1Oc1ccc(Cl)cc1Cl [Triclosan, 2,4,4′-trichloro-2′-hydroxydiphenyl ether]
Growth in Culture: 2 × 10^7 cfu/ml and 1.2 × 10^7 cfu/ml | reduction in growth in culture (0.5 percent triclosan alone (Table 4 experiment)): 0 log | Growth in Culture (Solution: Triclosan 0.25%, Silver Sulfadiazine 0%, after 10 minutes, control 2.1 × 10^7): 1.2 × 10^7 cfu/ml | Growth in Culture (Solution: Triclosan 0.5%, Silver Sulfadiazine 0%, after 10 minutes, control 2.1 × 10^7): 1 × 10^7 cfu/ml | reduction in growth in culture compared to the control (triclosan alone at 0.25 percent (Table 3 experiment)): less than a power of 10 | reduction in growth in culture compared to the control (triclosan alone at 0.5 percent (Table 3 experiment)): less than a power of 10
